Active and inactive are the calls of the source. The rule behind the calls is not given here.
Columns and labels:
HeLa = test: Antiproliferative activity against human HeLa cells incubated for 72 hrs by CCK8 assay; format: functional, cell-based
[1] = tested on: Mitogen-activated protein kinase 1/3 (ERK1/2) (Homo sapiens); test: Inhibition of ERK phosphorylation in human MIA PaCa-2 cells at lower concentration incubated for at least 48 hrs by Western blot analysis
[2] = Toxicity in BALB/c mouse xenografted with […] harboring KRAS G12D mutant assessed as animal death at 5 to 30 mg/kg, iv administered 5 times a week for 12 days; format: organism-based, C-26; details: in vivo, 288 h, dose 5-30 mg/kg, time 12 day
MIA PaCa-2 [3] = test: Inhibition of MEK1/2/BRAF complex in human MIA PaCa-2 cells at 100 nM incubated for 4 hrs by co-immunoprecipitation method; format: cell-based
HCT-116 [4] = test: Antitumor activity against human HCT-116 cells harboring KRAS G13D mutant xenografted in NU/NU mouse assessed as tumor growth inhibition administered intravenously 5 times a week for 16 days; format: functional, cell-based; details: dose 15-30 mg/kg, route iv, time 16.0 day
HUVEC = test: Inhibition of cell migration in human HUVEC cells at 0.01 to 1 uM incubated for 24 hrs by wound healing assay; format: functional, cell-based; details: dose 0.01-1 µM
[5] = target: T1, Serine/threonine-protein kinase B-raf (Homo sapiens, UniProt P15056); test: Inhibition of BRAF (unknown origin)
T1 sequence (P15056 whole entry): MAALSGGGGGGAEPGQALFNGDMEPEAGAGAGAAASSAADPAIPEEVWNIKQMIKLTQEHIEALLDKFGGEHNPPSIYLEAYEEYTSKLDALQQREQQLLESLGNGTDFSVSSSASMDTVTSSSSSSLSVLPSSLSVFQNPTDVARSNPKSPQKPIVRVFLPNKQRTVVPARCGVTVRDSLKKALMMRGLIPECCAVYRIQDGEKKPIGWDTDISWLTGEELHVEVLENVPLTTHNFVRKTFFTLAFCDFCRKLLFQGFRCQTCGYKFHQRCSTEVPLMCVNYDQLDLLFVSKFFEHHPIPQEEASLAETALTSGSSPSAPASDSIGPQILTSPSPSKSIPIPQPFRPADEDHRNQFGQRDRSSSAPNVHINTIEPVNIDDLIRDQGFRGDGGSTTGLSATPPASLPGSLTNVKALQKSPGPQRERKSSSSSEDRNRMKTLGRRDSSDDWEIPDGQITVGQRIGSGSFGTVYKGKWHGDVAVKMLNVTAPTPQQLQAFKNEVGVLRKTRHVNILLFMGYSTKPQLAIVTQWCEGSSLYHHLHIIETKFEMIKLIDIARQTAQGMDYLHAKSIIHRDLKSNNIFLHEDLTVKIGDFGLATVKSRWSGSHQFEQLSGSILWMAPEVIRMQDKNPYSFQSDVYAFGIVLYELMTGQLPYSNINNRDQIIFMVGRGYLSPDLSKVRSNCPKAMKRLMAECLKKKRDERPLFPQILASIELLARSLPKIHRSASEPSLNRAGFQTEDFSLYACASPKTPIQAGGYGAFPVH

[6] = target: T2, Dual specificity mitogen-activated protein kinase kinase 1 (Homo sapiens, UniProt Q02750); test: Inhibition of MEK1 (unknown origin) at 1 uM by kinase profiling analysis
T2 sequence (Q02750 whole entry): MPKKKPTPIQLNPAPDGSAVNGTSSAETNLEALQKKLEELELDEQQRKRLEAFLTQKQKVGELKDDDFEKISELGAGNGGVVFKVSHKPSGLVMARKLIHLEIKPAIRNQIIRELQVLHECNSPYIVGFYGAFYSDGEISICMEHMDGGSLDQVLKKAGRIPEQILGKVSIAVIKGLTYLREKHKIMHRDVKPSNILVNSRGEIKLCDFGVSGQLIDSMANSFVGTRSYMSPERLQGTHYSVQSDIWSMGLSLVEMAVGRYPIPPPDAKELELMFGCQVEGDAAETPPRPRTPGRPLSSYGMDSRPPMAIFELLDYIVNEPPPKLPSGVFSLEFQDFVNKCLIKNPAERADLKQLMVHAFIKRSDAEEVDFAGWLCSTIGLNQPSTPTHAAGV

HCT-116 [7] = test: Inhibition of colony formation in human HCT-116 cells incubated for 10 days by crystal violet staining based analysis; format: functional, cell-based; details: dose 0.1-10 µM, time 10.0 day
HCT-116 [8] = test: Antiproliferative activity against human HCT-116 cells harboring KRAS G13D mutant incubated for 72 hrs by CCK8 assay; format: functional, cell-based; details: HCT-116, 72 h
HCT-116 [9] = test: Induction of cell cycle arrest at G0/G1 phase in human HCT-116 cells at 0.1 to 2.5 uM incubated for 24 hrs by PI/RNase staining based flow cytometry (reference value: 61.35 %); format: functional; details: dose 0.1-2.5 µM
MIA PaCa-2 [10] = test: Induction of apoptosis in human MIA PaCa-2 cells assessed as late apoptotic cells at 1 uM incubated for 24 hrs by Annexin V-FITC/PI staining based flow cytometry (reference value: 6.90 %); format: functional
HCT-116 [11] = test: Antitumor activity against human HCT-116 cells harboring KRAS G13D mutant xenografted in NU/NU mouse at 30 mg/kg, iv administered 5 times a week for 16 days relative to control; format: functional; details: HCT-116, 384 h, time 16 day, read-out: TGI
[12] = target: T3, Serine/threonine-protein kinase A-Raf (Homo sapiens) (UniProt P10398); test: Binding affinity to ARAF (unknown origin) at 1 uM by kinase profiling analysis
T3 sequence (whole entry): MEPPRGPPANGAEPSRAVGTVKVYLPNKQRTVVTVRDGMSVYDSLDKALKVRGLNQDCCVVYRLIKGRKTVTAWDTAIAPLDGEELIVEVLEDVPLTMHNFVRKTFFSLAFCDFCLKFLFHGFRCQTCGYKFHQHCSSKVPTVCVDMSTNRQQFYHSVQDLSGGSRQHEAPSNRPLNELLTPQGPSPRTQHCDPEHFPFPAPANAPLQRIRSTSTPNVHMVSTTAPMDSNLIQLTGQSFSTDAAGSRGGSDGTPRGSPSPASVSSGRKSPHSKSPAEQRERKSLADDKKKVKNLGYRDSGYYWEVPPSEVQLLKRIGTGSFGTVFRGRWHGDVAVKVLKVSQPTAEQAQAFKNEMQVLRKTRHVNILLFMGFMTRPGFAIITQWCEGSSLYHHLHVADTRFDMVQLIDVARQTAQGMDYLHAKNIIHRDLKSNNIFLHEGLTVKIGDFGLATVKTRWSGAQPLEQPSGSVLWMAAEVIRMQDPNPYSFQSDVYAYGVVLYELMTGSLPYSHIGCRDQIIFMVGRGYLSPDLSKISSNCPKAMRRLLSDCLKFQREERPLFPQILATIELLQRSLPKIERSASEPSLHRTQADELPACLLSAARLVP

Homo sapiens = species on record: Homo sapiens; test: Inhibition of BRAF […] mutant (unknown origin) at 1 uM by kinase profiling analysis
[13] = target: Dual specificity mitogen-activated protein kinase kinase; MEK1/2 (Homo sapiens) (UniProt P36507+Q02750); test: Inhibition of MEK phosphorylation in human MIA PaCa-2 cells at lower concentration incubated for at least 48 hrs by Western blot analysis; format: cell-based
Chain of Dual specificity mitogen-activated protein kinase kinase; MEK1/2 (Homo sapiens) (P36507 whole entry, looked up): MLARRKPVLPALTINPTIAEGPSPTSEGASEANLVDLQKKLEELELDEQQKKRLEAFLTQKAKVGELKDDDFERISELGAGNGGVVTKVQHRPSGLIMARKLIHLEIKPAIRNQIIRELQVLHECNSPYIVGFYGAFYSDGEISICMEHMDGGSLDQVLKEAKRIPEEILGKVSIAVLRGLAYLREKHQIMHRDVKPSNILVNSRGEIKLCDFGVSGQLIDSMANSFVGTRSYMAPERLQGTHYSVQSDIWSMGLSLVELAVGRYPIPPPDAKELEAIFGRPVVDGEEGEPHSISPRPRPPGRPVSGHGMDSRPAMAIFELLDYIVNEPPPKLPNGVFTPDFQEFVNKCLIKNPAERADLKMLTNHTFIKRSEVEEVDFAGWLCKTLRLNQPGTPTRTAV
Chain of Dual specificity mitogen-activated protein kinase kinase; MEK1/2 (Homo sapiens) (Q02750 whole entry, looked up): as the sequence (Q02750 whole entry) above

[14] = target: Dual specificity mitogen-activated protein kinase kinase 2 (Homo sapiens) (UniProt P36507); test: Binding affinity to MEK2 (unknown origin) at 1 uM by kinase profiling analysis
Chain of Dual specificity mitogen-activated protein kinase kinase 2 (Homo sapiens) (P36507 whole entry): as the sequence (P36507 whole entry, looked up) above

MIA PaCa-2 [15] = test: Induction of apoptosis in human MIA PaCa-2 cells assessed as early apoptotic cells at 0.05 uM incubated for 24 hrs by Annexin V-FITC/PI staining based flow cytometry (reference value: 5.02 %); format: functional
MIA PaCa-2 [16] = test: Induction of apoptosis in human MIA PaCa-2 cells assessed as late apoptotic cells at 0.25 uM incubated for 24 hrs by Annexin V-FITC/PI staining based flow cytometry (reference value: 6.90 %); format: functional
MIA PaCa-2 [17] = test: Inhibition of colony formation in human MIA PaCa-2 cells incubated for 10 days by crystal violet staining based analysis; format: functional, cell-based; details: dose 0.01-1 µM, time 10.0 day
MIA PaCa-2 [18] = test: Induction of apoptosis in human MIA PaCa-2 cells assessed as late apoptotic cells at 0.05 uM incubated for 24 hrs by Annexin V-FITC/PI staining based flow cytometry (reference value: 6.90 %); format: functional
[19] = Toxicity in NU/NU mouse xenografted with human HCT-116 cells harboring KRAS G13D mutant assessed as animal death at 15 to 30 mg/kg, iv administered 5 times a week for 16 days; format: organism-based; details: in vivo, 384 h, dose 15-30 mg/kg, time 16 day
[20] = Antiproliferative activity against mouse C26 cells harboring KRAS G12D mutant incubated for 72 hrs by CCK8 assay; format: functional, cell-based, C-26; details: C26, 72 h
[21] = Stability in human liver microsomes assessed as half life at 200 uM preincubated for 5 mins followed by NADPH addition measured upto 60 mins by LC-MS/MS analysis; format: ADME, Microsome; details: time 65 min
[22] = target: T1, Serine/threonine-protein kinase B-raf; test: Inhibition of BRAF (unknown origin) assessed as remaining activity at 0.1 uM relative to control
MIA PaCa-2 [23] = test: Induction of apoptosis in human MIA PaCa-2 cells assessed as increase in cleaved PARP-1 level upto 1 uM incubated for 24 hrs by Western blot analysis; format: functional, cell-based
C-26 = test: Antitumor activity against mouse C26 cells harboring KRAS G12D mutant xenografted in BALB/c mouse assessed as tumor growth inhibition administered intravenously 5 times a week for 12 days; format: functional, cell-based; details: dose 5-30 mg/kg, route iv, time 12.0 day
[24] = Antiproliferative activity against rat H9c2 cells incubated for 72 hrs by CCK8 assay; format: toxicity, cell-based
[25] = target: T2, Dual specificity mitogen-activated protein kinase kinase 1; test: Inhibition of MEK1 (unknown origin) assessed as remaining activity at 0.1 uM relative to control

CCNS(=O)(=O)Nc1cccc(Cn2cnc3c(F)c(Nc4ccc(C5CC5)cc4F)c(C(=O)NOCCO)cc32)c1F
IC50 (HeLa): > 10000 nM
inhibition [1]: Active
Activity [2]: Non-Toxic
inhibition (MIA PaCa-2 [3]): Active
inhibition (HCT-116 [4]): Active
inhibition (HUVEC): Active
IC50 [5]: 3 nM
inhibition [6]: Active
inhibition (HCT-116 [7]): Dose-Dependent Effect
IC50 (HCT-116 [8]): 79 nM
Activity (HCT-116 [9]): 79.63%
Activity (MIA PaCa-2 [10]): 8.21%
inhibition in vivo at 30 mg/kg (HCT-116 [11]): 93%
Activity [12]: Active
inhibition (Homo sapiens): Active
inhibition [13]: Active
Activity [14]: Active
Activity (MIA PaCa-2 [15]): 10.7%
Activity (MIA PaCa-2 [16]): 7.36%
inhibition (MIA PaCa-2 [17]): Dose-Dependent Effect
Activity (MIA PaCa-2 [18]): 6.59%
Activity [19]: Non-Toxic
IC50 [20]: 96 nM
half-life at 200 µM [21]: 58.7 min
Activity [22]: -3%
Activity (MIA PaCa-2 [23]): Active
inhibition (C-26): Active
IC50 at 72 h [24]: > 50000 nM
Activity [25]: 25%
